According to ChEMBL document CHEMBL4622867, “An efficient synthetic approach toward a sporadic heterocyclic scaffold: 1,3-Oxathiol-2-ylidenes; alkaline phosphatase inhibition and molecular docking studies” (Bioorg Med Chem Lett, 2020):
pIC50: −log10 of the molar value.

Legend:
HeLa = assay: Antiproliferative activity against human HeLa cells assessed as inhibition of cell growth by MTT assay relative to control; type: functional
Bos taurus [1] = species on record: Bos taurus; assay: Inhibition of bovine kidney TNAP relative to control; set-up: concentration or dose not given beside the values; details: concentration not given here
Bos taurus [2] = species on record: Bos taurus; assay: Inhibition of calf intestinal alkaline phosphatase relative to control; set-up: concentration or dose not given beside the values; details: concentration not given here
[3] = Inhibition of bovine kidney TNAP; set-up: species or system Bos taurus
[4] = Inhibition of calf intestinal alkaline phosphatase; set-up: species or system Bos taurus

SMILES	growth inhibition (GI) (HeLa)	inhibition (Bos taurus [1])	inhibition (Bos taurus [2])	pIC50 [3]	pIC50 [4]
CCOC(=O)c1s/c(=N\C(=O)c2ccccc2C)oc1C	9.8%	28.8%	19.5%		
CCOC(=O)c1s/c(=N\C(=O)c2cccc(Br)c2)oc1C	4.61%			5.19	5.94
CCOC(=O)c1s/c(=N\C(=O)c2ccccc2[N+](=O)[O-])oc1C	2.42%	44.5%	35.4%		
c1ccc([C@H]2CN3CCSC3=N2)cc1 [LEVAMISOLE]				4.72	
CCOC(=O)c1s/c(=N\C(=O)c2cc(OC)c(OC)c(OC)c2)oc1C	58.07%	47.1%	36.5%		
N[C@@H](Cc1ccccc1)C(=O)O [PHENYLALANINE]					4.10
CCOC(=O)c1s/c(=N\C(=O)c2ccc([N+](=O)[O-])cc2)oc1C	21.53%		40.4%	6.43	
CCOC(=O)c1s/c(=N\C(=O)Cc2ccccc2)oc1C	4.15%	41.4%	25.3%		
CCOC(=O)c1s/c(=N\C(=O)CCCc2ccccc2)oc1C	3.96%			5.62	6.17
CCOC(=O)c1s/c(=N\C(=O)c2cccc(Cl)c2)oc1C	8.07%	45.3%			5.54
CCOC(=O)c1s/c(=N\C(=O)c2ccccc2)oc1C	69.03%	39.1%	30.4%		
CCOC(=O)c1s/c(=N\C(=O)c2ccccc2Cl)oc1C	51.53%		45.3%	4.52	
CCOC(=O)c1s/c(=N\C(=O)c2ccco2)oc1C	42.11%	45.7%	33.1%		
CCOC(=O)c1s/c(=N\C(=O)c2ccc(Cl)cc2)oc1C		48.3%	27.9%		
CCOC(=O)c1s/c(=N\C(=O)c2cccc(C)c2)oc1C	33.07%	30.9%	28.9%		
